Here are results for two compounds from publication PMC11101759, “Inhibitors of dermatan sulfate epimerase 1 decreased accumulation of glycosaminoglycans in mucopolysaccharidosis type I fibroblasts” (Glycobiology, 2024).

For assay [1], the target named is T1, HSepi; heparan sulfate glucuronyl C-5 epimerase (GLCE) (Homo sapiens, UniProt O94923).
T1 sequence (O94923 29-617): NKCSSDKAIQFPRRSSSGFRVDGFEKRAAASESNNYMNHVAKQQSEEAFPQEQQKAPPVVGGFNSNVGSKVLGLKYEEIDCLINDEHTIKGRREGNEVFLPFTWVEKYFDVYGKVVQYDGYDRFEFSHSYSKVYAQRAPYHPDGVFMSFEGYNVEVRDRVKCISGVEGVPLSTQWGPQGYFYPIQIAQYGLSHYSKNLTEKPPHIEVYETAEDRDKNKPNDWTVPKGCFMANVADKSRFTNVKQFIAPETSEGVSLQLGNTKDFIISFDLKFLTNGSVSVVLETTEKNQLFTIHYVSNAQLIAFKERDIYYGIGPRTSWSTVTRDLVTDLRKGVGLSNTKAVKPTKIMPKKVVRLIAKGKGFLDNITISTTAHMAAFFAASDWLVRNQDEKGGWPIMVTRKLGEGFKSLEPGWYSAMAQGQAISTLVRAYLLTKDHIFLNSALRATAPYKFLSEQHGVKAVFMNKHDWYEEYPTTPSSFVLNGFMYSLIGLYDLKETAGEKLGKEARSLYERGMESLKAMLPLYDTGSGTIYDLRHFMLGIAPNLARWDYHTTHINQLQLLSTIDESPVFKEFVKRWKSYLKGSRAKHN
Kind of assay: HSepi epimerase activity assay, lysate of transfected […]HEK. It is filed as biochemical. As to conditions: read-out: % inhibition at 1,000 μM.

The target of assay [2] is T2, DS-epi1 (truncated form, amino acid 23–775-HIS) (Homo sapiens, UniProt Q9UL01).
T2 construct: gene DSE; truncated, residues 23-775, HIS tag
As to the kind of experiment: DS-epi1 epimerase activity assay. It is filed as biochemical.

For orientation: inhibition means the share of the control response that was lost under treatment. The term IC50 denotes the point on the concentration scale where inhibition reaches its midpoint. Higher therefore signals weaker potency. As for `CN(c1cc(-c2ccccc2)nc(SCc2ccc(C(=O)O)o2)n1)C1CCCCC1` [compound 3, inhibitor 3], the inhibition at 1000 µM in assay [1] worked out at 69%. For the same compound, in assay [2], 12 µM corresponded to half-maximal inhibition (IC50).

In the case of `CCCN(C)c1cc(-c2ccccc2)nc(SCc2cccc(C(=O)O)c2)n1` [compound 11, inhibitor 11], the inhibition at 1000 µM in assay [1] amounted to 47%. In addition, the 50% inhibitory concentration (IC50) in assay [2] is 16 µM.
